Target: T1, fibrin gels (40 mg/mL fibrinogen, 33 U/mL thrombin) (Homo sapiens, UniProt P02671+P02675+P02679)
T1 construct: purchased Ethicon (Evicel)
T1 sequence (P02671 20-644 isoform P02671-2 limits assumed): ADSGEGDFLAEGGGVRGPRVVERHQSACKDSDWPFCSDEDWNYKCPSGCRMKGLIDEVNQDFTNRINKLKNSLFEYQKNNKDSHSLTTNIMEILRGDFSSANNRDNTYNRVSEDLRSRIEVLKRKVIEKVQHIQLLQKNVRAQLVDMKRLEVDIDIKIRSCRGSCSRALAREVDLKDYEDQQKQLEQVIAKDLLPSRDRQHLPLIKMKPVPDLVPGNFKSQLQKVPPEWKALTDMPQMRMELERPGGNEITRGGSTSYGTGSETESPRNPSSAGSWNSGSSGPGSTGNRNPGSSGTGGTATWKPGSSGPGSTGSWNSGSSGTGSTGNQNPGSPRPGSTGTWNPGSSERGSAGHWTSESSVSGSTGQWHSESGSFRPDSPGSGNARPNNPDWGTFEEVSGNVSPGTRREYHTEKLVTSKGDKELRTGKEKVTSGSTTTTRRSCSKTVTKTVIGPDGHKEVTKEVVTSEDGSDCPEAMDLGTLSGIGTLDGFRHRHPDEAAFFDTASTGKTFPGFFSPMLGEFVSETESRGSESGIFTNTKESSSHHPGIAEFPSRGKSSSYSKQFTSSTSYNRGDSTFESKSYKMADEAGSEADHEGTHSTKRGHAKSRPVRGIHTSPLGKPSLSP
T1 sequence (P02675 45-491 limits assumed): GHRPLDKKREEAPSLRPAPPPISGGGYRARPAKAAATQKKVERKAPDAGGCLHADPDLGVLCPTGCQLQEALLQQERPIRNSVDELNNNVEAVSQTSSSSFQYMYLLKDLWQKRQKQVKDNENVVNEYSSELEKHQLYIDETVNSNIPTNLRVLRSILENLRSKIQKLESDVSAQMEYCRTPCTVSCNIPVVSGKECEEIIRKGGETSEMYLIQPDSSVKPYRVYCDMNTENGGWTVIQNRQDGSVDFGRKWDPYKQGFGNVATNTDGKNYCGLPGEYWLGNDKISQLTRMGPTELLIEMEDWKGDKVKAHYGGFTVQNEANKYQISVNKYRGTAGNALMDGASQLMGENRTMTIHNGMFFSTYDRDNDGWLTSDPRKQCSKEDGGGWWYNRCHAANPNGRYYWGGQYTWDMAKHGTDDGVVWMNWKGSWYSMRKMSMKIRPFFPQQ
T1 sequence (P02679 27-437 isoform P02679-2 limits assumed): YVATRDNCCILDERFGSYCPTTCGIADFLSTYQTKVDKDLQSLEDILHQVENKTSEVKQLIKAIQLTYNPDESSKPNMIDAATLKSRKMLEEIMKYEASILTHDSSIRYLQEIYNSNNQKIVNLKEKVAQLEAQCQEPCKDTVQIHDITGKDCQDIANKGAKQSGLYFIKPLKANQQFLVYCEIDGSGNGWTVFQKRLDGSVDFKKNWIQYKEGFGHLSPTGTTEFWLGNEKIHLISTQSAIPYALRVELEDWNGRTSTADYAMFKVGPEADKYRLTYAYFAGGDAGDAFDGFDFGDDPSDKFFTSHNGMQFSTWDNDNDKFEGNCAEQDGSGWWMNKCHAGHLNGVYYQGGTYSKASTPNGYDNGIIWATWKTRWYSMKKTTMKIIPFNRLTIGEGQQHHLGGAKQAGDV
Experiment: Rheometry gelation time, polymerization time and shear modulus, higher fibrinogen concentration fibrin gels
Assay type: biochemical
Conditions: 0.12% w/v dye, n=3; for final shear modulus (g′): strain sweep after 2 hour time sweep
Experimental: The viscoelastic mechanical properties of fibrin gels were characterized using oscillatory shear rheology on a Discovery Hybrid Rheometer 2 (TA Instruments; New Castle, DE) with a 20 mm cone-and-plate geometry at a 1° angle and a 20 mm stage. Inertia, friction, and rotational mapping calibrations were performed prior to each experiment. A Peltier temperature-controlled stage maintained 37° C. and a solvent trap was used to control evaporation during experiments lasting longer than 20 minutes. Gels were prepared by mixing specified concentrations of fibrinogen, dye, and thrombin on the stage. Immediately after combining, the geometry head was lowered to 500 μm (˜1-3 seconds) before beginning the first experiment. Gelation kinetics were monitored in time sweeps at 1% strain and 10 rad/s angular frequency. Strain sweeps were measured from 0.01-1000% strain at 1 Hz frequency. A frequency sweeps measured from 0.01-3 Hz at 1% strain was used to confirmed fibrin independence of frequency.
To determine the final polymerization time and resultant shear modulus, a final concentration of 40 mg/mL fibrinogen, 33 U/mL thrombin, and 0.12% w/v dye was used to simulate fibrin scaffold parameters described elsewhere (see, e.g., Gandhi et al., 2018 Acta Biomater., 67:134-46). A time sweep was performed for 2 hours, and the strain sweep was measured following the time sweep to confirm final polymerization had occurred. The shear modulus was determined by averaging values within the linear region of the strain sweep (between 0.01% and 0.5% strain). A 95% confidence interval was defined for the final shear modulus and the lower range value was used as the threshold to determine the final polymerization time.
With confirming that both TB and EB, but not PEG, cause a substantial increase in gelation time, polymerization time was measured. The polymerization time is the total time for the hydrogel to fully form with no remaining soluble fibrin monomer. Functionally, this is defined as the point at which the shear modulus no longer changes. Quantitatively, this is defined at the point at which the g′ reaches its maximum and plateaus over time.
To test if the inclusion of TB and EB would alter the polymerization time, the previous rheometry setup was used over a longer range of time. Unfortunately, evaporative effects were detected as early as 2 hours. […] The surface was sticky, and the presence of non-cross-linked fibrin was evident. To measure polymerization time reliably, the fibrinogen and thrombin concentrations were increased. A 40 mg/mL fibrinogen and 33 U/mL thrombin final concentration is capable of fully polymerizing within 2 hours (see, e.g., Gandhi et al., Acta Biomater., 67:134-46 (2018)). As such, the rheometry experiment were repeated at these concentrations. A final concentration of 0.12% w/v for TB, EB and PEG was used.
Both PBS and PEG groups show g′ values greater than g″ values at the first detectable time point (12 seconds), showing that both groups had already past the initial gelation time. TB and EB show a delay in gelation but appear to quickly approach the PBS and PEG groups. Near the 1000 sec mark, all four groups appear to show a similar growth of g′ overtime. A strain sweep was measured at the end of the time sweep to confirm that the gel had completed polymerization within the 2 hour time frame. Shear modulus values from the linear portion of the strain sweep were verified with rheological data described elsewhere (see, e.g., Wedgwood et al., Macromolecular Symposia, 334:117-25 (2013); and Moreno-Arotzena et al., Materials (Basel), 8:1636-51 (2015)), and used to determine the final gel shear modulus. Using this shear modulus value, the polymerization time for each sample was calculated. The polymerization times for PBS, TB, EB, and PEG groups were 97.0±14.9, 94.6±8.3, 106.2±10.7, 93.8±17.0 minutes (n=3, p=0.654) (FIG. 8B).

SMILES	gelation time	polymerization time	final shear modulus (g′)
Cc1cc(-c2ccc(/N=N/c3c(S(=O)(=O)O)cc4cc(S(=O)(=O)O)cc(N)c4c3O)c(C)c2)ccc1/N=N/c1c(S(=O)(=O)O)cc2cc(S(=O)(=O)O)cc(N)c2c1O [TB, Trypan Blue]	42.4 ± 19.4 s	94.6 ± 8.3 min	2197±221 Pa
Cc1cc(-c2ccc(/N=N/c3ccc4c(S(=O)(=O)O)cc(S(=O)(=O)O)c(N)c4c3O)c(C)c2)ccc1/N=N/c1ccc2c(S(=O)(=O)O)cc(S(=O)(=O)O)c(N)c2c1O [EB, Evans Blue]	89.6 ± 17.9 s	106.2 ± 10.7 min	2077±441 Pa

Source: patent US20230414826A1, “FIBRIN HYDROGELS” (Mayo Foundation for Medical Education and Research, priority 2020, published 2023)
